Literature values as cited in article PMC12181400, “Leveraging viral genome sequences and machine learning models for identification of potentially selective antiviral agents” (Communications Chemistry, 2025).
Structures can show the parent of a compound that is named as a salt. Where two headings read alike, the source gives them in different places. Peptide text beside a SMILES is read from it.

Tests used:
Conditions in all cases: cited from earlier work
[1] = system: cell viability (tox21-ar-mda-kb2-luc-antagonist-p2)
[2] = system: cell viability (tox21-are-bla-p1)
[3] = system: cell viability (tox21-car-agonist-p1)
[4] = system: cell viability (tox21-car-antagonist-p1)
[5] = system: cell viability (tox21-ar-mda-kb2-luc-agonist-p3)
[6] = system: cell viability (tox21-ap1-agonist-p1)
[7] = curve rank −9 to 9, 0 = inactive, ref NCATS Tox21 public data browser

Row | SMILES | tox21-ar-mda-kb2-luc-antagonist-p2-viability (curve rank) [1] | tox21-are-bla-p1-viability (curve rank) [2] | tox21-car-agonist-p1-viability (curve rank) [3] | tox21-car-antagonist-p1-viability (curve rank) [4] | tox21-ar-mda-kb2-luc-agonist-p3-viability (curve rank) [5] | tox21-ap1-agonist-p1-viability (curve rank) [6] | tox21-ar-mda-kb2-luc-antagonist-p2-viability (curve rank) [1, 7] | tox21-are-bla-p1-viability (curve rank) [2, 7] | tox21-car-agonist-p1-viability (curve rank) [3, 7] | tox21-car-antagonist-p1-viability (curve rank) [4, 7] | tox21-ar-mda-kb2-luc-agonist-p3-viability (curve rank) [5, 7] | tox21-ap1-agonist-p1-viability (curve rank) [6, 7]
1 | O=C(Oc1ccccc1C(=O)O)c1ccccc1O [Salsalate] | 0 | 0 | 0 | 0 | 0 | 0 | – | – | – | – | – | –
2 | CCOC(=O)[C@H](CCc1ccccc1)N[C@@H](C)C(=O)N1CCC[C@H]1C(=O)O [Enalapril maleate] | 0 | 0 | 0 | 0 | 0 | 0 | – | – | – | – | – | –
3 | CC(C)NCC(O)COc1ccc(COCCOC(C)C)cc1 (stereo not drawn) [Bisoprolol fumarate] | 0 | 0 | 0 | 0 | 0 | 0 | – | – | – | – | – | –
4 | Cc1cc(C)cc(OCC2CNC(=O)O2)c1 (stereo not drawn) [Metaxalone] | 0 | 0 | 0 | 0 | 0 | 0 | – | – | – | – | – | –
5 | CCN(CC)CC1CCCCN1CC(=O)N1c2ccccc2C(=O)Nc2cccnc21 (stereo not drawn) [AF-DX 116] | 0 | 0 | 0 | 0 | 0 | 0 | – | – | – | – | – | –
6 | Cc1cccc(C(=O)O)c1O [2-Hydroxy-3-methylbenzoic acid] | 0 | 0 | 0 | 0 | 0 | 0 | – | – | – | – | – | –
7 | CO[C@@]1(NC(=O)CSCC#N)C(=O)N2C(C(=O)O)=C(CSc3nnnn3C)CS[C@@H]21 [Cefmetazole sodium] | 0 | 0 | 0 | 0 | 0 | -0.67 | – | – | – | – | – | –
8 | CC[C@]12CCCN3CCc4c(n(c5ccccc45)[C@@](O)(C(=O)OC)C1)[C@@H]32 [Vincamine] | – | – | – | – | – | – | 0 | 0 | 0 | 0 | 0 | 0
9 | CCn1cc(C(=O)O)c(=O)c2cnc(N3CCNCC3)nc21 [Pipemidic acid] | 0 | 0 | 0 | 0 | 0 | 0 | – | – | – | – | – | –
10 | CC(=O)NCCCCCC(=O)O [Acexamic acid] | – | – | – | – | – | – | 0 | 0 | 0 | 0 | 0 | 0
11 | CC(O)Cn1cnc2c1c(=O)n(C)c(=O)n2C (stereo not drawn) [Proxyphylline] | 0 | 0 | 0 | 0 | 0 | 0 | – | – | – | – | – | –
12 | FC(F)(F)c1ccccc1-n1ccnc1 [1-[2-(Trifluoromethyl)phenyl]-1H-imidazole] | – | – | – | – | – | – | 0 | 0 | 0 | 0 | 0 | 0
13 | COC(=O)[C@H](Cc1ccccc1)NC(=O)[C@@H](N)CC(=O)O [Aspartame] (H-Asp-Phe-OMe) | – | – | – | – | – | – | 0 | 0 | 0 | 0 | 0 | 0
14 | O=C1C(CC[S+]([O-])c2ccccc2)C(=O)N(c2ccccc2)N1c1ccccc1 (stereo not drawn) [Sulfinpyrazone] | 0 | 0 | 0 | 0 | 0 | 0 | – | – | – | – | – | –
15 | NP(N)(=O)NC(=O)c1ccc(F)cc1 [Flurofamide] | 0 | 0 | 0 | 0 | 0 | 0 | – | – | – | – | – | –
16 | Cc1c(NC(C)C)c(=O)n(-c2ccccc2)n1C [Ramifenazone] | 0 | 0 | 0 | 0 | 0 | 0 | – | – | – | – | – | –
17 | CC(=O)CCCCn1c(=O)c2c(ncn2C)n(C)c1=O [Pentoxifylline] | 0 | 0 | 0 | 0 | 0 | 0 | – | – | – | – | – | –
18 | Cc1cc(CC(=O)[O-])n(C)c1C(=O)c1ccc(Cl)cc1.[Na+] [Sodium zomepirac] | – | – | – | – | – | – | 0 | 0 | 0 | 0 | 0 | 0
19 | COC(=O)[C@H](c1ccccc1Cl)N1CCc2sccc2C1 [Clopidogrel bisulfate] | 0 | 0 | 0 | 0 | 0 | 0 | – | – | – | – | – | –
20 | Cc1ccccc1OCC(O)CO (stereo not drawn) [Mephenesin] | 0 | 0 | 0 | 0 | 0 | 0 | – | – | – | – | – | –
21 | CN1C(=O)CC(c2ccccc2)C1=O (stereo not drawn) [Phensuximide] | 0 | 0 | 0 | 0 | 0 | 0 | – | – | – | – | – | –
22 | COc1ccc(C2CNC(=O)C2)cc1OC1CCCC1 (stereo not drawn) [Rolipram] | – | – | – | – | – | – | 0 | 0.67 | 0 | 0 | 0 | 0
23 | CCN(CC)CCOC(=O)C(c1ccccc1)c1ccccc1 [Adiphenine hydrochloride] | 0 | 0 | 0 | 0 | 0 | 0 | – | – | – | – | – | –
